pIC50: −log10 of the molar value.
Target: T1, human CRTH2 (Homo sapiens, UniProt Q9Y5Y4)
T1 construct: expressed in transfected cells
T1 sequence (Q9Y5Y4 1-395): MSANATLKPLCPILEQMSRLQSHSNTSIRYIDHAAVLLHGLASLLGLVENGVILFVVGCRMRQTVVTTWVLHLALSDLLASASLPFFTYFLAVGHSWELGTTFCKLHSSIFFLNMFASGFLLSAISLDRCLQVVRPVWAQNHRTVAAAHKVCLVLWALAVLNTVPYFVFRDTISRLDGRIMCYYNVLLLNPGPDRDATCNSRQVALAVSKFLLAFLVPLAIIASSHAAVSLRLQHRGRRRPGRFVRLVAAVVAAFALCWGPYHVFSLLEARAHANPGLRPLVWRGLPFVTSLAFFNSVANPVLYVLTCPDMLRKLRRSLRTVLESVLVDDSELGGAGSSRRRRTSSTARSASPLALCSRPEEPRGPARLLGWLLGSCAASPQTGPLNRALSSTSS
Assay: Human CRTH2 Receptor Binding Assay (whole cell, [3H]ramatroban competition)
Details: CHO-K1 cells expressing human CRTH2 and G-alpha16; 20 nM [3H]ramatroban; 1 hour, room temperature
Excerpt: A whole cell receptor binding assay using [^3H]ramatroban as the competing radioactive ligand was employed to evaluate the compound binding activity to human CRTH2. The radioactive ligand [^3H]ramatroban was synthesized according to Sugimoto et. al. (Eur. J. Pharmacol. 524, 30-37, 2005) to a specific activity of 42 Ci/mmol.
A cell line stably expressing human CRTH2 was established by transfecting CHO-K1 cells with two mammalian expression vectors that harbored human CRTH2 and G-alpha16 cDNAs, respectively, using FuGene® 6 transfection reagent (from Roche). Stable clones expressing CRTH2 were selected by staining each clone with BM16 (BD Pharmingen™ from BD Biosciences, a division of Becton, Dickinson and Company), which is a rat monoclonal antibody to human CRTH2. The cells were maintained as monolayer cultures in Ham's F-12 medium containing 10% fetal bovine serum, 100 units/mL penicillin, […] streptomycin, 2 mM glutamine, 0.5 mg/mL G418 (geneticin) for CRTH2, and 0.2 mg/mL hygromycin-B (for G-alpha 16). For whole cell receptor binding assay, the monolayer cells were rinsed once with PBS (phosphate buffered saline), dissociated using diammonium ethylenediaminetetraacetate (Versene™ EDTA from the Dow Chemical Company), and suspended in PBS containing 10 mM MgCl2 and 0.06% BSA (bovine serum albumin) at 1.5×10^6 cells/mL.
The binding reactions (0.2 mL) were performed in 96-well plates at room temperature in PBS containing 1.5×10^5 cells, 10 mM MgCl2, 0.06% BSA, 20 nM [^3H]ramatroban, and test compound at various concentrations. After 1 hour of binding reactions, the cells were harvested on GF™/B filter microplates (microtiter plates with embedded glass fiber from PerkinElmer, Inc.) and washed 5 times with PBS using a Filtermate™ Harvester (a cell harvester that harvests and washes cells from microplates from PerkinElmer, Inc.). The radioactivities bound to the cells were determined using a microplate scintillation counter (TopCount® NXT, from PerkinElmer, Inc.) after adding 50 μL of Microscint™ 20 scintillation fluid (from PerkinElmer, Inc.) to each well of the filter plates. The radioactivity from non-specific binding was determined by replacing compound with 10 μM of 15(R)-15-methyl PGD2 (from Cayman Chemical Company) in the reaction mixtures. The radioactivity bound to the cells in the absence of compound (total binding) was determined by replacing compound with 0.25% of DMSO (dimethyl sulfoxide) in the reaction mixture. Specific binding data were obtained by subtracting the radioactivity of non-specific binding from each binding data.
The IC50 value is defined as the concentration of the tested compound that is required for 50% inhibition of total specific binding. In order to calculate the IC50 value, the percent inhibition data were determined for 7 concentrations for each compound. The percent inhibition for a compound at each concentration was calculated according to the following formula, [1-(specific binding in the presence of compound)/(total specific binding)]×100. The IC50 value was then obtained by fitting the percent inhibition data to a sigmoidal dose-response (4 parameter logistic) model in the XLfit® software Excel add-in program [from ID Business Solutions Ltd., model 205, where F(x)=(A+(B−A)/(1+((C/x)^D)))].

pIC50	Structure (SMILES)
8.38	O=C(O)COc1cc(F)cc2c1CCCC2NS(=O)(=O)c1cc(Br)cc(C(F)(F)F)c1 (centres unmarked) [Example 1-28, [5-(3-Bromo-5-trifluoromethyl-benzenesulfonyl-amino)-3-fluoro-5,6,7,8-tetrahydro-naphthalen-1-yloxy]-acetic acid]
7.74	O=C(O)COc1c(F)c(F)cc2c1CCCC2NS(=O)(=O)c1cc(Br)cc(C(F)(F)F)c1 (centres unmarked) [Example 1-29, [5-(3-Bromo-5-trifluoromethyl-benzenesulfonyl-amino)-2,3-difluoro-5,6,7,8-tetrahydro-naphthalen-1-yloxy]-acetic acid]
7.34	O=C(O)COc1c(F)c(F)cc2c1CCCC2NS(=O)(=O)c1ccc(Cl)cc1Cl (centres unmarked) [Example 1-30, [5-(2,4-Dichloro-benzenesulfonyl-amino)-2,3-difluoro-5,6,7,8-tetrahydro-naphthalen-1-yloxy]-acetic acid]
6.81	O=C(O)COc1cc(F)cc2c1CCCC2NS(=O)(=O)c1ccc(Cl)cc1Cl (centres unmarked) [Example 1-31, [5-(2,4-Dichloro-benzenesulfonyl-amino)-3-fluoro-5,6,7,8-tetrahydro-naphthalen-1-yloxy]-acetic acid]
6.57	O=C(O)COc1c(F)c(F)cc2c1CCCC2NS(=O)(=O)c1cc(Cl)ccc1Cl (centres unmarked) [Example 1-32, [5-(2,5-Dichloro-benzenesulfonyl-amino)-2,3-difluoro-5,6,7,8-tetrahydro-naphthalen-1-yloxy]-acetic acid]
7.09	O=C(O)COc1cc(F)cc2c1CCCC2NS(=O)(=O)c1cc(Cl)ccc1Cl (centres unmarked) [Example 1-33, [5-(2,5-Dichloro-benzenesulfonyl-amino)-3-fluoro-5,6,7,8-tetrahydro-naphthalen-1-yloxy]-acetic acid]
8.07	CC(C)c1cccc(-c2ccc(S(=O)(=O)NC3CCCc4c3cc(F)c(F)c4OCC(=O)O)nc2)c1 (centres unmarked) [Example 1-34, {2,3-Difluoro-5-[5-(3-isopropyl-phenyl)-pyridine-2-sulfonylamino]-5,6,7,8-tetrahydro-naphthalen-1-yloxy}-acetic acid]
8.15	CC(C)c1cccc(-c2ccc(S(=O)(=O)NC3CCCc4c(OCC(=O)O)cc(F)cc43)nc2)c1 (centres unmarked) [Example 1-35, {3-Fluoro-5-[5-(3-isopropyl-phenyl)-pyridine-2-sulfonylamino]-5,6,7,8-tetrahydro-naphthalen-1-yloxy}-acetic acid]
8.35	CC(C)c1cccc(-c2ccc(S(=O)(=O)NC3CCCc4c(OCC(=O)O)cc(Cl)cc43)nc2)c1 (centres unmarked) [Example 1-36, {3-Chloro-5-[5-(3-isopropyl-phenyl)-pyridine-2-sulfonylamino]-5,6,7,8-tetrahydro-naphthalen-1-yloxy}-acetic acid]
8.55	O=C(O)COc1cc(Br)cc2c1CCC[C@H]2NS(=O)(=O)c1cc(Br)cc(C(F)(F)F)c1 [Example 1-37, [(R)-3-Bromo-5-(3-bromo-5-trifluoromethyl-benzenesulfonyl-amino)-5,6,7,8-tetrahydro-naphthalen-1-yloxy]-acetic acid]
8.47	O=C(O)COc1c(F)c(Cl)cc2c1CCC[C@H]2NS(=O)(=O)c1cc(F)cc(C(F)(F)F)c1 [Example 1-38, [(R)-3-Chloro-2-fluoro-5-(3-fluoro-5-trifluoromethyl-benzenesulfonyl-amino)-5,6,7,8-tetrahydro-naphthalen-1-yloxy]-acetic acid]
8.59	O=C(O)COc1c(F)c(Cl)cc2c1CCC[C@H]2NS(=O)(=O)c1cc(Br)cc(C(F)(F)F)c1 [Example 1-39, [(R)-5-(3-Bromo-5-trifluoromethyl-benzenesulfonyl-amino)-3-chloro-2-fluoro-5,6,7,8-tetrahydro-naphthalen-1-yloxy]-acetic acid]
8.20	O=C(O)COc1c(F)c(Cl)cc2c1CCC[C@H]2NS(=O)(=O)c1ccc(Cl)cc1Cl [Example 1-40, [(R)-3-Chloro-5-(2,4-dichloro-benzenesulfonyl-amino)-2-fluoro-5,6,7,8-tetrahydro-naphthalen-1-yloxy]-acetic acid]
8.47	O=C(O)COc1cc(Cl)cc2c1CCC[C@H]2NS(=O)(=O)c1cc(F)cc(C(F)(F)F)c1 [Example 1-41, [(R)-3-Chloro-5-(3-fluoro-5-trifluoromethyl-benzenesulfonyl-amino)-5,6,7,8-tetrahydro-naphthalen-1-yloxy]-acetic acid]
8.49	O=C(O)COc1cc(Cl)cc2c1CCC[C@H]2NS(=O)(=O)c1cc(Br)cc(C(F)(F)F)c1 [Example 1-42, [(R)-5-(3-Bromo-5-trifluoromethyl-benzenesulfonyl-amino)-3-chloro-5,6,7,8-tetrahydro-naphthalen-1-yloxy]-acetic acid]
7.96	O=C(O)COc1cc(Cl)cc2c1CCC[C@H]2NS(=O)(=O)c1cc(Cl)ccc1Cl [Example 1-43, [(R)-3-Chloro-5-(2,5-dichloro-benzenesulfonyl-amino)-5,6,7,8-tetrahydro-naphthalen-1-yloxy]-acetic acid]
7.79	CC(C)c1cccc(-c2ccc(S(=O)(=O)NC3CCCc4c3cc(Cl)c(F)c4OCC(=O)O)nc2)c1 (centres unmarked) [Example 1-44, {3-Chloro-2-fluoro-5-[5-(3-isopropyl-phenyl)-pyridine-2-sulfonylamino]-5,6,7,8-tetrahydro-naphthalen-1-yloxy}-acetic acid]
8.10	CN(C1CCCc2c1cc(Cl)c(F)c2OCC(=O)O)S(=O)(=O)c1cc(C(F)(F)F)cc(C(F)(F)F)c1 (centres unmarked) [Example 2-1, {5-[(3,5-Bis-trifluoromethyl-benzenesulfonyl)-methyl-amino]-3-chloro-2-fluoro-5,6,7,8-tetrahydro-naphthalen-1-yloxy}-acetic acid]
8.08	CN(C1CCCc2c(OCC(=O)O)cc(Cl)cc21)S(=O)(=O)c1cc(C(F)(F)F)cc(C(F)(F)F)c1 (centres unmarked) [Example 2-4, {5-[(3,5-Bis-trifluoromethyl-benzenesulfonyl)-methyl-amino]-3-chloro-5,6,7,8-tetrahydro-naphthalen-1-yloxy}-acetic acid]
8.23	CN([C@@H]1CCCc2c(OCC(=O)O)cc(Cl)cc21)S(=O)(=O)c1cc(C(F)(F)F)cc(C(F)(F)F)c1 [Example 2-5, {(R)-5-[(3,5-Bis-trifluoromethyl-benzenesulfonyl)-methyl-amino]-3-chloro-5,6,7,8-tetrahydro-naphthalen-1-yloxy}-acetic acid]
7.03	CN(C1CCCc2c(OCC(=O)O)cc(Cl)cc21)S(=O)(=O)c1ccc(Cl)cc1Cl (centres unmarked) [Example 2-6, {3-Chloro-5-[(2,4-dichloro-benzenesulfonyl)-methyl-amino]-5,6,7,8-tetrahydro-naphthalen-1-yloxy}-acetic acid]
6.48	CN(C1CCCc2c1cc(Cl)c(Cl)c2OCC(=O)O)S(=O)(=O)c1cc(C(F)(F)F)cc(C(F)(F)F)c1 (centres unmarked) [Example 2-7, {5-[(3,5-Bis-trifluoromethyl-benzenesulfonyl)-methyl-amino]-2,3-dichloro-5,6,7,8-tetrahydro-naphthalen-1-yloxy}-acetic acid]
6.20	Cc1c(Cl)cc2c(c1OCC(=O)O)CCCC2N(C)S(=O)(=O)c1cc(C(F)(F)F)cc(C(F)(F)F)c1 (centres unmarked) [Example 2-8, {5-[(3,5-Bis-trifluoromethyl-benzenesulfonyl)-methyl-amino]-3-chloro-2-methyl-5,6,7,8-tetrahydro-naphthalen-1-yloxy}-acetic acid]

From patent US8263656B2 (Hoffmann-La Roche Inc., priority 2008, dated 2012)
